For test [1], the target named is HEK-293 cells transfected with dox-inducible human wild type FGFR1 (Homo sapiens (Human), UniProt P11362). The test is described as follows: FGFR1 pERK cell assay. It is filed as cell-based. As to conditions: HEK-293 dox-inducible FGFR1, 1 hour compound, 100 ng/ml FGF-acidic; maximum concentration 5 μM. On the procedure:
(§1) FGFR1 pERK Cell Assay: • HEK-293 cells transfected with doxycycline(dox)-inducible human wild type FGFR1 (SEQ ID NO: 1) were plated in a collagen or poly-D-lysine coated 96 well flat bottom plates at 4×10^5 cells/well in complete Dulbecco's Modified Eagle Medium (DMEM) containing 10% FBS and 1 μg/ml doxycycline and allowed to attach for 24 h at 37° C., 5% CO2. Cells were treated with compound using 1:3 serial dilutions with a maximum final concentration of 5 μM. Compound was incubated on cells for 1 hour at 37° C., 5% CO2. Cells were then stimulated with a final concentration of 100 ng/ml human FGF-acidic (R&D Systems Cat number 232-FA/CF) for 5 minutes at 37° C., 5% CO2. Medium was removed, and cells were lysed with lysis buffer containing phosphatase and protease inhibitors. Phospho ERK1/2 was measured using the Meso Scale Discovery sandwich assay (Meso Scale Discovery cat. no. K151DWD). The assay captures phospho ERK1/2 and detects with a sulfo-tagged total ERK1/2 antibody. The chemiluminescent signal was read on the Sector Imager Plate reader. 100 POC was determined using no test compound and 0 POC was determined using a control compound. The POC values were fit to a 4-parameter logistic curve as a function of the concentration of the compound, and the IC50 value is the point where the curve crosses 50 POC.

Test [2] concerns the target T1, HEK-293 cells transfected with dox-inducible human wild type FGFR3 (Homo sapiens (Human), UniProt P22607). The experiment in a line: FGFR3 pERK cell assay. The conditions noted are these: HEK-293 dox-inducible FGFR3, 1 hour compound, 100 ng/ml FGF-acidic; maximum concentration 5 μM. The test is classed as cell-based. On the procedure: as §1, with “FGFR3 pERK” for “FGFR1 pERK”, “with dox-inducible” for “with doxycycline(dox)-inducible”, “type FGFR3” for “type FGFR1”, “NO: 5)” for “NO: 1)”, “complete DMEM medium” for “complete Dulbecco's Modified Eagle Medium (DMEM)”, “test compounds” for “test compound”

The target in test [3] is HEK-293 cells transfected with dox-inducible human wild type FGFR2 (Homo sapiens (Human), UniProt P21802). The test is described as follows: FGFR2 pFGFR cell assay (ELISA). The conditions noted are these: HEK-293 dox-inducible FGFR2, 1 hour compound, 30 ng/ml FGF-acidic. It is filed as cell-based. On the procedure: (§2) FGFR2 pFGFR Cell Assay: • HEK-293 cells transfected with dox-inducible human wild type FGFR2 (SEQ ID NO: 3) were plated in a collagen or poly-D-lysine coated 96 well flat bottom plates at 4×10^5 cells/well in complete DMEM medium containing 10% FBS and 1 μg/ml doxycycline and allowed to attach for 24 h at 37° C., 5% CO2. Cells were treated with compound using 1:3 serial dilutions with a maximum final concentration of 5 μM. Compound was incubated on cells for 1 hour at 37° C., 5% CO2. Cells were then stimulated with a final concentration of 30 ng/ml human FGF-acidic (R&D Systems Cat number 232-FA/CF) for 5 minutes at 37° C., 5% CO2. Medium was removed and cells were lysed with lysis buffer containing phosphatase and protease inhibitors. Phospho FGFR2 was measured by ELISA (R&D Systems cat. no. DYC684). The ELISA captures total FGFR2 and detects total phospho tyrosine. Optical density was measured for each well using a Versamax reader at a wavelength of 450 nm. 100 POC was determined using no test compounds and 0 POC was determined using a control compound. The POC values were fit to a 4-parameter logistic curve as a function of the concentration of the compound, and the IC50 value is the point where the curve crosses 50 POC.
HEK-293 cells transfected with dox-inducible human wild type FGFR2, sequence (P21802 22-821): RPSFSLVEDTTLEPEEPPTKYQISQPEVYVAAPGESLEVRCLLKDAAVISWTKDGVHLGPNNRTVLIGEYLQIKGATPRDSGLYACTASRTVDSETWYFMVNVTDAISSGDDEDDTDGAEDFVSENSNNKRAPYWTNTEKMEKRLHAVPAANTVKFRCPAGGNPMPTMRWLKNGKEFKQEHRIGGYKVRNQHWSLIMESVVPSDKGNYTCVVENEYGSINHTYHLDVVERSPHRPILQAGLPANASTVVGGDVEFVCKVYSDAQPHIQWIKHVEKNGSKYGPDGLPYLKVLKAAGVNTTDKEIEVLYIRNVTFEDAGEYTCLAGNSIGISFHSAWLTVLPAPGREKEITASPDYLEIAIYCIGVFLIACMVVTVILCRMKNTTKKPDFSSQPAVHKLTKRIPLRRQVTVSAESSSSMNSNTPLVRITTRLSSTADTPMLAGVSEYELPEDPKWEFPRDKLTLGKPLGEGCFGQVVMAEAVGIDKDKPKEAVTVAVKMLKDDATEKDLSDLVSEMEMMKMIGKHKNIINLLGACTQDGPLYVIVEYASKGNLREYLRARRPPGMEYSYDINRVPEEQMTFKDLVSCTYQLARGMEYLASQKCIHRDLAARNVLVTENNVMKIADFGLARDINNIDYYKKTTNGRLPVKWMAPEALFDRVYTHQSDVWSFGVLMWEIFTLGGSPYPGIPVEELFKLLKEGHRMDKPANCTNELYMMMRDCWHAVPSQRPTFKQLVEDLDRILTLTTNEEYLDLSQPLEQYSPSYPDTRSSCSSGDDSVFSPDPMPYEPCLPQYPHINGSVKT
In general terms: In an ELISA, binding on a coated surface is turned into a signal by an enzyme label.

Test [4] addresses dephosphorylated FGFR1 (SEQ ID NO: 1, amino acids 458 to 765) (Homo sapiens (Human), UniProt P11362). The experiment in a line: FGFR enzyme binding assay (HTRF tracer displacement), FGFR1. As to conditions: 5 nM dephosphorylated FGFR1, average of multiple determinations if made. The gist of the method: (§3)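 Kinase and tracer were incubated with compound for 60 minutes at 22° C. Tracer displacement was then measured by HTRF, and results were expressed as POC with 1 μM control inhibitor defining full displacement.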

The target of test [5] is phosphorylated FGFR3 (SEQ ID NO: 5, amino acids 449 to 759) (Homo sapiens (Human), UniProt P22607). The test is described as follows: FGFR enzyme binding assay (HTRF tracer displacement), FGFR3. The conditions noted are these: 5 nM phosphorylated FGFR3, average of multiple determinations if made. The gist of the method:
as §3
A general note: Time-resolved FRET reads energy transfer from a long-lived donor to a nearby acceptor.

The target of test [6] is recombinant human FGFR1 catalytic domain (amino acids 308-731) (Homo sapiens (Human), UniProt P11362). The test is described as follows: FGFR1 enzyme activity assay (LanthaScreen TR-FRET). The conditions noted are these: 20 min incubation at 22° C., average of multiple determinations if made, read-out: FGFR1 Enz FRET IC50. The test is classed as biochemical. The method, boiled down: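 His-tagged FGFR1 kinase domain with 100 nM Alexa Fluor 647-poly-GT peptide and ATP in pH 7.5 HEPES/MgCl2 buffer with 2% DMSO, 20 min at 22 °C. Quenched with EDTA plus 2 nM Eu-PY20 antibody and read after 60 min. IC50 comes from a 4-parameter fit of percent of control.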
recombinant human FGFR1 catalytic domain (amino acids 308-731), sequence (P11362 other isoform, or with tags, fused parts or gaps): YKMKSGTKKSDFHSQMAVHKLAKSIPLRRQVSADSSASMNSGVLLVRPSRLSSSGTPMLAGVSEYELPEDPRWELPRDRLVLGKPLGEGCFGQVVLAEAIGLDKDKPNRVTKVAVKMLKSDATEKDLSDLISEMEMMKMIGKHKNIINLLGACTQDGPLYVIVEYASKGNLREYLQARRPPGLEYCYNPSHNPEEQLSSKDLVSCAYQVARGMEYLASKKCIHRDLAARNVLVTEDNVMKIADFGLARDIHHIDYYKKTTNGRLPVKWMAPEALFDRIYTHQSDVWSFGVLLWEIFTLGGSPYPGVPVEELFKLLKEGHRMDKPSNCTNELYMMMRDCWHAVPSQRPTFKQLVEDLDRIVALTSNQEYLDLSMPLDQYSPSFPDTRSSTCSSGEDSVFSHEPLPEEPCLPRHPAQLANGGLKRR

The target in test [7] is recombinant human FGFR3 (amino acids R397-T806) (Homo sapiens (Human), UniProt P22607). The experiment in a line: FGFR3 enzyme activity assay (LanthaScreen TR-FRET). The test is classed as biochemical. The conditions noted are these: 25 μM ATP, 10 min incubation at 22° C., average of multiple determinations if made, read-out: FGFR3 Enz FRET IC50. The method, boiled down: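 GST-HIS6-tagged human FGFR3 (R397-T806) was reacted with 100 nM Alexa Fluor 647-Poly-GT substrate and 25 μM ATP plus compound in HEPES/MgCl2/Triton buffer, pH 7.5, 2% DMSO, for 10 min at 22 °C.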
recombinant human FGFR3 (amino acids R397-T806), sequence (P22607 397-806): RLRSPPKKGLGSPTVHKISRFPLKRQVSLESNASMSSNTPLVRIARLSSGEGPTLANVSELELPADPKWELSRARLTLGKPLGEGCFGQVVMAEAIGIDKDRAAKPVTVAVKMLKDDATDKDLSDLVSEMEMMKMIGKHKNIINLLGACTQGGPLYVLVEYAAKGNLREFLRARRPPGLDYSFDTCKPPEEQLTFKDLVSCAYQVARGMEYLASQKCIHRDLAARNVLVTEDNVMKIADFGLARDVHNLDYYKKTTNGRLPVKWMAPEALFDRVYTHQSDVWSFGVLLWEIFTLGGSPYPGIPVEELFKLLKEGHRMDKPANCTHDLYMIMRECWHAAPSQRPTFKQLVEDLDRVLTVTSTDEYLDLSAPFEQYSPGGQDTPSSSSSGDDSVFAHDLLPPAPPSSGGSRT

Test [8] addresses FGFR1 (SEQ ID NO: 1, amino acids 458-765) (Homo sapiens (Human), UniProt P11362). The test is described as follows: LC/MS FGFR1 kobs assay (covalent protein modification). The test is classed as binding. The conditions noted are these: 500 nM FGFR1, 3 μM compound. The gist of the method:
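Covalent labeling of FGFR1 kinase domain (aa 458-765) tracked over time by intact-protein LC/MS after formic acid quench. kobs derived by fitting DMSO-normalized percent unmodified FGFR1 to an exponential decay model.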

For test [9], the target named is T1, HEK-293 cells transfected with dox-inducible human wild type FGFR3. The test is described as follows: FGFR3 pFGFR cell assay (ELISA). The test is classed as cell-based. As to conditions: HEK-293 dox-inducible FGFR3, 1 hour compound, 100 ng/ml FGF-acidic. On the procedure:
as §2, with “FGFR3” for “FGFR2”, “5)” for “3)”, “top” for “maximum”, “100” for “30”, “FGF-acidic” for “FGF-acidic (R&D Systems Cat number 232-FA/CF)”, “cat DYC2719).” for “cat. no. DYC684).”

T1 sequence (P22607 23-806): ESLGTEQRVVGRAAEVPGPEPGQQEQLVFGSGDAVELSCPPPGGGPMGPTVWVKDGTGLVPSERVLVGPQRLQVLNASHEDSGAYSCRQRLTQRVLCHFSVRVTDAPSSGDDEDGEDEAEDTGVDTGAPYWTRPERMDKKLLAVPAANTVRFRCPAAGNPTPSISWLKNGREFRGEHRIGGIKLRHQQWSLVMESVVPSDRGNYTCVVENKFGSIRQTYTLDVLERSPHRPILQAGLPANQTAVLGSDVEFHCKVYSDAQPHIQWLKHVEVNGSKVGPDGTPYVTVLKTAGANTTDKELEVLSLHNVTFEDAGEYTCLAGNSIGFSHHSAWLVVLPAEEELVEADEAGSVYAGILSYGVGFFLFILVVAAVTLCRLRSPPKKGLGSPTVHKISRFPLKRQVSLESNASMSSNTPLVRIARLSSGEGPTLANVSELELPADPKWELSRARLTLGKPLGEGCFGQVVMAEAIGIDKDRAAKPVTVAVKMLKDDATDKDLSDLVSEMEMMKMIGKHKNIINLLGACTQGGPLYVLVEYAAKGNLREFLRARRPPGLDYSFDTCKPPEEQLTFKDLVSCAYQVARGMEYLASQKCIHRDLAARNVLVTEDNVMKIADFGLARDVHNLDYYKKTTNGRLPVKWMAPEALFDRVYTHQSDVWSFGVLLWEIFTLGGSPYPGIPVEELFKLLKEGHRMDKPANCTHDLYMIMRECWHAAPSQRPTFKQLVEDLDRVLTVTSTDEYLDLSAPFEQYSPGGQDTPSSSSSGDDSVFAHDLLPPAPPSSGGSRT
phosphorylated FGFR3 (SEQ ID NO: 5, amino acids 449 to 759), sequence (P22607 449-759): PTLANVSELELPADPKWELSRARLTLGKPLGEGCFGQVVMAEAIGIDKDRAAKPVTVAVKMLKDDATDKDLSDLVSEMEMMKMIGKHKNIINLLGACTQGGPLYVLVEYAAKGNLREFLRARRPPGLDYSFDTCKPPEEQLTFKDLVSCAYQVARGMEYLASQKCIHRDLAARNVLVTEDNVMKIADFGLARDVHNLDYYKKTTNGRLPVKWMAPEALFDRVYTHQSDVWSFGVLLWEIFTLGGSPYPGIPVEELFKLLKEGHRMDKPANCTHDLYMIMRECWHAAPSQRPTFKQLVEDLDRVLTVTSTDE
HEK-293 cells transfected with dox-inducible human wild type FGFR1, sequence (P11362 22-822): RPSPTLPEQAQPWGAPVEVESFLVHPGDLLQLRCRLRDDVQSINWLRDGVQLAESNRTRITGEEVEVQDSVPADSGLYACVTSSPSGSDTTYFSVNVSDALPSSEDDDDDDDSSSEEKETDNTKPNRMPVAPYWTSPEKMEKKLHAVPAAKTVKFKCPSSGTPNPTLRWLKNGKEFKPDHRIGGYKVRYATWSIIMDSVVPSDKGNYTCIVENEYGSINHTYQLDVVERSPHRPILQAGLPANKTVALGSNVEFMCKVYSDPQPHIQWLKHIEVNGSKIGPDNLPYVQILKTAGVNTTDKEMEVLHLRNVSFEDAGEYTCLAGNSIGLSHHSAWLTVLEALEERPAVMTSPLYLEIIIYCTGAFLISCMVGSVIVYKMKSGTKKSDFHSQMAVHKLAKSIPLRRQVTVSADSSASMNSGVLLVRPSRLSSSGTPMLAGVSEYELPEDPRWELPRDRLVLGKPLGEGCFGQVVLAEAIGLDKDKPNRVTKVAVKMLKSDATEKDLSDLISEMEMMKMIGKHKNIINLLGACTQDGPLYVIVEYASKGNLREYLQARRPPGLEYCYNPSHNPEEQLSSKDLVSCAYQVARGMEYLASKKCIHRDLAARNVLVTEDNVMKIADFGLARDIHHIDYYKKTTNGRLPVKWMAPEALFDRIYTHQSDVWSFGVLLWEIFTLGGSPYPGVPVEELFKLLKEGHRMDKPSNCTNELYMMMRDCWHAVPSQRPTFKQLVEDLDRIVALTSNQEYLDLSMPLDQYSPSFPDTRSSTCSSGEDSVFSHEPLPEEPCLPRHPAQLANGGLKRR
dephosphorylated FGFR1 (SEQ ID NO: 1, amino acids 458 to 765), sequence (P11362 458-765): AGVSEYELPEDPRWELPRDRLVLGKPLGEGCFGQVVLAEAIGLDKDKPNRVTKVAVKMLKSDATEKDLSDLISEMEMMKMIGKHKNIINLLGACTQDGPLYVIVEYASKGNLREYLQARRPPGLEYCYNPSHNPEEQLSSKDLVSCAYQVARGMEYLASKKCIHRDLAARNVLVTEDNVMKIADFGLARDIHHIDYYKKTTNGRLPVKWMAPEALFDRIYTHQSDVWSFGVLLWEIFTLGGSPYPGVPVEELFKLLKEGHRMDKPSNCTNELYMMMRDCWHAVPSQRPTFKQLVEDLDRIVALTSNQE
FGFR1 (SEQ ID NO: 1, amino acids 458-765), sequence (P11362 458-765): as above

As for `COc1cc(-c2cnn(C3CCN(C(=O)C4CN(C(=O)/C=C/CF)C4)CC3)c2)cn2ncc(C#N)c12` [Example 142], the IC50 (usually the point on the concentration scale where inhibition reaches its midpoint) in test [1] was 769 nM; in test [2], 119 nM; in [3] it was 424 nM.
In turn, `COc1cc(-c2cnn(C3CCN(C(=O)/C=C/CN(C)C)CC3)c2)cn2ncc(C#N)c12` [Example 144, (E)-6-(1-(1-(4-(dimethylamino)benoyl)piperidin-4-yl)-1H-pyrazol-4-yl)-4-methoxypyrazol14 5o[1,5-a]pyridine-3-carbonitrile] gave an IC50 in [3] of 34 nM.
Regarding `COc1cc(-c2cnn(C3CCN(C(=O)C4CN(C(=O)C#CCN(C)C)C4)CC3)c2)cn2ncc(C#N)c12` [Example 176, 6-(1-(1-(1-(4-(dimethylamino)but-2-ynoyl)azetidine-3-carbonyl)piperidin-4-yl)-1H-pyrazol-4-yl)-4-methoxypyrazolo[1,5-a]pyridine-3-carbonitrile], the IC50 was found to be 136 nM in [4]; 15 nM in test [5]; 1200 nM in [6]; 1160 nM in test [7]; 18 nM in test [9]. The “FGFR1 Enz kobs” value in test [8] came out at 0.0497 min⁻¹.

Values taken from patent US12180207B2 (ARRAY BIOPHARMA INC., priority 2018, dated 2024).
